The source made the active and inactive calls.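 The calls were made as follows: active = mean EC50 below 10 µM; inactive = the rest.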
Target: Type-1 angiotensin II receptor (Homo sapiens) (UniProt P30556)
Test: AT1 receptor agonists, beta-arrestin recruitment, SAR follow-up, selectivity assay for APJ agonist project, cell-based, CHO-K1 PathHunter, luminescence (AID 488881)
Conditions: CHO-K1 AGTR1 PathHunter beta-arrestin

Chain of Type-1 angiotensin II receptor (Homo sapiens) (P30556 whole entry, looked up): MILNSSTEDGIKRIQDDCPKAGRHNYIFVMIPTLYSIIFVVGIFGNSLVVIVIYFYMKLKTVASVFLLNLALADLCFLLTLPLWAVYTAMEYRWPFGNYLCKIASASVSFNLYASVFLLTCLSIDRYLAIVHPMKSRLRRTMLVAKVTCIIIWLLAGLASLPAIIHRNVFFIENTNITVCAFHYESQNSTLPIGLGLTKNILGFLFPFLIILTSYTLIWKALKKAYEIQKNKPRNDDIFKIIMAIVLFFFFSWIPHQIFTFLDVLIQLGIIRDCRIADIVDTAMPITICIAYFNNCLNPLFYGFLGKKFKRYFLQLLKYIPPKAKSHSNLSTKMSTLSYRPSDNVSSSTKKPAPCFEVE

Structure (SMILES) | EC50
CC1=C/C(=N\OS(=O)(=O)c2ccc(C)cc2)C(C)=CC1=O | > 79 µM (inactive)
C=CCSc1nc(O)c(CC)c(=O)n1C1CCCCC1 | > 79 µM (inactive)
CCSc1nc(O)c(CC)c(=O)n1C(C)CC (configuration not stated) | > 79 µM (inactive)
O=S(=O)(Nc1nc(-c2ccccc2)cs1)c1ccc(Br)cc1 | > 79 µM (inactive)
Cc1cc(C)n2nc3nc(N4CCOCC4)nc(-c4ccccc4)c3c2n1 | > 79 µM (inactive)
COc1ccc(S(=O)(=O)O/N=C2\C=C(C(C)C)C(=O)C=C2C)cc1 | > 79 µM (inactive)
CC1=CC(=O)C=C/C1=N\OS(=O)(=O)c1ccc(C)cc1 | > 79 µM (inactive)
C=CCSc1nc(O)c(CC)c(=O)n1C(C)CC (configuration not stated) | > 79 µM (inactive)
CCc1c(O)n(C2CCCCC2)c(=S)[nH]c1=O | > 79 µM (inactive)
O=S(=O)(Nc1nc(-c2ccccc2)cs1)c1ccc(Cl)cc1 | > 79 µM (inactive)
CC1=CC(=NOS(=O)(=O)c2ccccc2)C=CC1=O | > 79 µM (inactive)
CSc1nc(=O)cc(N)n1-c1ccc(C)cc1 | > 79 µM (inactive)
CCN1/C(=C\C=C2/SC(=S)N(C)C2=O)Sc2ccccc21 | > 79 µM (inactive)
CCc1c(O)nc(SC)n(C(C)CC)c1=O (configuration not stated) | > 79 µM (inactive)
CCSc1nc(O)c(CC)c(=O)n1C1CCCCC1 | > 79 µM (inactive)
CCCSc1nc(O)c(CC)c(=O)n1C(C)CC (configuration not stated) | > 79 µM (inactive)
CN(C)CCSc1nc(O)c(-c2ccccc2)c(=O)n1-c1ccccc1 | > 79 µM (inactive)
CCc1c(O)nc(SCc2ccccc2)n(C(C)CC)c1=O (configuration not stated) | > 79 µM (inactive)
CC1=C/C(=N\OS(=O)(=O)c2ccc(Cl)cc2)C=CC1=O | > 79 µM (inactive)
Cc1ccc(S(=O)(=O)ON=C2C=CC(=O)C=C2)cc1 | > 79 µM (inactive)
CC1=CC(=NOS(=O)(=O)c2ccccc2)C=C(C)C1=O | > 79 µM (inactive)

Structure (SMILES) | EC50
Cc1ccc(S(=O)(=O)Nc2nc(-c3ccccc3)cs2)cc1 | > 79 µM (inactive)
COc1ccccc1-n1c(SCC(=O)c2ccccc2)nc(O)cc1=O | > 79 µM (inactive)
C=CCSc1nc(O)c(CC)c(=O)n1-c1ccc(C)cc1 | > 79 µM (inactive)
CCc1c(O)nc(SCc2ccccc2)n(C2CCCCC2)c1=O | > 79 µM (inactive)
CCCCSc1nnc(NC(=O)CSc2nc3ncccc3[nH]2)s1 | > 79 µM (inactive)
CC1=C/C(=N/OS(=O)(=O)c2ccc(C)cc2)C(C(C)C)=CC1=O | > 79 µM (inactive)
CC1=CC(=O)C(C(C)C)=CC1=NOS(=O)(=O)c1ccccc1 | > 79 µM (inactive)
CC1=C(C)C(=NOS(=O)(=O)c2ccc(C)cc2)C=CC1=O | > 79 µM (inactive)
CC1=CC(=O)C=C(C)C1=NOS(=O)(=O)c1ccccc1 | > 79 µM (inactive)
CCN1/C(=C/C(=O)c2sc(=S)n(CC)c2O)Sc2ccccc21 | > 79 µM (inactive)
CC1=CC(=NOS(=O)(=O)c2ccccc2)C(C(C)C)=CC1=O | > 79 µM (inactive)
CC1=CC(=NOS(=O)(=O)c2ccc(C)cc2)C=C(C)C1=O | > 79 µM (inactive)
CC1=CC(=O)C(C(C)C)=C/C1=N/OS(=O)(=O)c1ccccc1 | > 79 µM (inactive)
CCc1c(O)nc(SC)n(C2CCCCC2)c1=O | > 79 µM (inactive)
CC1=CC(=NOS(=O)(=O)c2ccc(Cl)cc2)C=C(C)C1=O | > 79 µM (inactive)
CC1=C/C(=N/OS(=O)(=O)c2ccccc2)C(C)=CC1=O | > 79 µM (inactive)
COc1ccc(S(=O)(=O)ON=C2C=C(C)C(=O)C(C)=C2)cc1 | > 79 µM (inactive)
CCCCSc1nc(O)c(CC)c(=O)n1C1CCCCC1 | > 79 µM (inactive)
C=CCn1c(SCc2ccccc2)nc(O)c(CC)c1=O | > 79 µM (inactive)
CC1=C/C(=N/OS(=O)(=O)c2ccc(C)cc2)C=CC1=O | > 79 µM (inactive)
CCc1c(O)nc(SC(C)CC)n(C(C)CC)c1=O (configuration not stated) | > 79 µM (inactive)
